Data on one compound can be found in article PMC3931646, “A Cyclic Nucleotide-Gated Channel Mutation Associated with Canine Daylight Blindness Provides Insight into a Role for the S2 Segment Tri-Asp motif in Channel Biogenesis” (PLoS ONE, 2014).

In assay [1] the target is T1, cA3 (Canis lupus, UniProt A0A068LEV2).
T1 construct: gene CNGA3; full-length coding region cloned from canine retina, C-terminal YFP (pEYFP-N1, stop removed), tSA201 cells, homotetramer
T1 sequence (A0A068LEV2 1-708): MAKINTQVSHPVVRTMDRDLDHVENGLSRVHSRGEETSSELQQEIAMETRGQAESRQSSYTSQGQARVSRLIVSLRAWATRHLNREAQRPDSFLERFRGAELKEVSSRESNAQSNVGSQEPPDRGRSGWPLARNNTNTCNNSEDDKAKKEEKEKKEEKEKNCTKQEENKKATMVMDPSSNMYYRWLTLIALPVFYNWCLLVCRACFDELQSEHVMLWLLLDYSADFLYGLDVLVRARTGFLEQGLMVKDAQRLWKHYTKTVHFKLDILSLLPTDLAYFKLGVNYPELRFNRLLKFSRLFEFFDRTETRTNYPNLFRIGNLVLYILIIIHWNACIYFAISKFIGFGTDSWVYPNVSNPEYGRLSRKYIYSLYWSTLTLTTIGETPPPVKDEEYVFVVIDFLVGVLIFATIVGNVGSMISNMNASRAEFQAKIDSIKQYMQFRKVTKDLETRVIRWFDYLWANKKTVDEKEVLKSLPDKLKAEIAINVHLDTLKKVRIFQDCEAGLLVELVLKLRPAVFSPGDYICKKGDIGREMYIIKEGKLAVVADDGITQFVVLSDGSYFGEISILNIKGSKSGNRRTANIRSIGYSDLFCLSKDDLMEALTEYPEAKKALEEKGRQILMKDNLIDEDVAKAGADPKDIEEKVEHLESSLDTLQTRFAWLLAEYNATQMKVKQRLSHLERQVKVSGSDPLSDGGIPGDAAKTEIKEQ
Briefly: inside-out patch electrophysiology, current block. Format: biochemical. The settings on record: 25 µM; channel block; 25 µM L-cis-diltiazem with 100 µM cGMP, -60 mV, 120 mM NaCl, EDTA/EGTA, pH 7.4, room temperature. An excerpt: inside-out patch electrophysiology, current block on cA3

Assay [2] concerns the target T2, cA3+ hB3 (Canis lupus familiaris; Homo sapiens, UniProt A0A068LEV2+Q9NQW8).
T2 construct: gene CNGA3; inter-species heterotetramer: canine CNGA3 with C-terminal YFP co-expressed with untagged human CNGB3 (pcDNA3.1) in tSA201 cells; stoichiometry debated (2:2 or 3:1)
T2 sequence (A0A068LEV2 1-708): T1 sequence (A0A068LEV2 1-708)
T2 sequence (Q9NQW8 1-809): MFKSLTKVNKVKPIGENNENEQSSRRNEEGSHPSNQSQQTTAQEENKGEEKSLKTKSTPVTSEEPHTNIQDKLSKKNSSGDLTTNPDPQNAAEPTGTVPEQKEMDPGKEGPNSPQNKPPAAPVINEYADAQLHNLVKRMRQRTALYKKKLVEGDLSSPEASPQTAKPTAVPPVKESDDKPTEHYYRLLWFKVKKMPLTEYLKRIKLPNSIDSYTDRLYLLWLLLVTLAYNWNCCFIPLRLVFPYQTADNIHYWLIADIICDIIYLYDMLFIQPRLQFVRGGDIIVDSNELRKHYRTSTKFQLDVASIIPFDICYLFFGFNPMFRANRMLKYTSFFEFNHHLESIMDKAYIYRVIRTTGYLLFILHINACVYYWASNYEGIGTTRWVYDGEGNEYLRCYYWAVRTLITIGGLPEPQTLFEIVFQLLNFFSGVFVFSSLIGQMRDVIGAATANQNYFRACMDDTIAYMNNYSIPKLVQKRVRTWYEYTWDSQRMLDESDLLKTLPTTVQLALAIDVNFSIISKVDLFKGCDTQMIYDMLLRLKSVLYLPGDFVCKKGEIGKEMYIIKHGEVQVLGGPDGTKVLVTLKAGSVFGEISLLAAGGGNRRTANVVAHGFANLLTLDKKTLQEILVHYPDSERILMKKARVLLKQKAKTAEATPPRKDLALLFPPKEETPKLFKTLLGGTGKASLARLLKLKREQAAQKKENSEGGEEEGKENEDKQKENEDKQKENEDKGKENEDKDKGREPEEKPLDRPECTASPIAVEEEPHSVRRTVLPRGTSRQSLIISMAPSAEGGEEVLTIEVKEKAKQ
Briefly: inside-out patch electrophysiology, current block. Format: biochemical. To be noted: 25 µM; channel block; 25 µM L-cis-diltiazem with 100 µM cGMP, -60 mV, 120 mM NaCl, EDTA/EGTA, pH 7.4, room temperature. An excerpt: inside-out patch electrophysiology, current block on cA3+ hB3

As for `COc1ccc([C@H]2Sc3ccccc3N(CCN(C)C)C(=O)[C@H]2OC(C)=O)cc1` [L-cis-diltiazem], the Idil/I in assay [1] is on record as 0.79±0.05; in assay [2], 0.40±0.02.
